Like-named read-outs stand apart in the source and are kept apart here. Where no end group is shown, it is not given here.
Legend:
DRB1*0101 (DR1) = DRB1*0101 (DR1) (Homo sapiens, UniProt P01903+P01911, A100R/D57E/F55L/F60I/F76Y/I96L/L162R/M171V/P40L/Q125E/R42F/V115G/Y59C); experiment: HLA class II peptide binding assay, purified HLA; details: Table XIX, DR supermotif peptides; unit not given
[1] = system: HLA-DR molecules (DR1, DR4w4, DR7, DRB5*0101, DRB1*1501, DRB1*1101, DRB1*0802, DRB1*1302); experiment: DR supertype cross-reactive binding; design: species or system human; details: number of DR1, DR4w4, DR7 bound, Table XXVIII
DRB1*0401 (DR4w4) = DRB1*0401 (DR4w4) (Homo sapiens, UniProt P01903+P01911, A100K/A169T/F76Y/I96L/K127E/L162R/M171V/N62H/P40V/Q125Y/R42H/S133A/S149N/S66Y/V115G/V209L/W38E); experiment: HLA class II peptide binding assay, purified HLA; details: Table XIX, DR supermotif peptides; unit not given
DRB1*0701 (DR7) = DRB1*0701 (DR7) (Homo sapiens, UniProt P01903+P01911, A100R/A102G/A103Q/D57E/D86V/E43K/F76Y/K127E/L162R/M171V/P40G/Q125H/Q99D/R33Q/R42Y/R54Q/S133A/S66F/T210M/V115G/Y107V/Y59L/Y89S); experiment: HLA class II peptide binding assay, purified HLA; details: Table XIX, DR supermotif peptides; unit not given
HLA-B*0702 = HLA-B*0702 (Homo sapiens, UniProt P01889); type: binding
[2] = system: B7-supertype molecules (B*0702, B*3501, B*5101, B*5301, B*5401); experiment: B7-supertype cross-reactive binding; design: species or system human; details: of five B7-supertype alleles tested
[3] = Table XXIV, B7 supermotif peptides

CSCC[C@H](NC(=O)[C@H](CC(=O)O)NC(=O)[C@@H](NC(=O)CN)[C@@H](C)O)C(=O)N[C@@H](CCCCN)C(=O)N[C@@H](CC(C)C)C(=O)N[C@@H](CCCNC(=N)N)C(=O)N[C@@H](CC(C)C)C(=O)N1CCC[C@H]1C(=O)N[C@@H](C)C(=O)N[C@@H](CO)C(=O)N1CCC[C@H]1C(=O)N[C@@H](CCC(=O)O)C(=O)N[C@H](C(=O)N[C@@H](Cc1c[nH]cn1)C(=O)O)[C@@H](C)O
DR1 binding data (DRB1*0101 (DR1)): 0.0010 | DR147 Cross-binding [1]: 0 | DR4w4 binding data (DRB1*0401 (DR4w4)): −0.0025 | DR7 binding data (DRB1*0701 (DR7)): −0.0013

CSCC[C@H](NC(=O)[C@H](CC(C)C)NC(=O)[C@H](CCC(=O)O)NC(=O)[C@H](Cc1c[nH]c2ccccc12)NC(=O)[C@@H](NC(=O)[C@@H](NC(=O)[C@@H](NC(=O)CN)C(C)C)[C@@H](C)O)C(C)C)C(=O)N[C@H](C(=O)N[C@@H](Cc1ccccc1)C(=O)NCC(=O)N[C@@H](C)C(=O)N[C@@H](CCCCN)C(=O)N1CCC[C@H]1C(=O)N[C@@H](Cc1ccc(O)cc1)C(=O)O)[C@@H](C)O
DR147 Cross-binding [1]: 1 | DR4w4 binding data (DRB1*0401 (DR4w4)): 0.0330 | DR7 binding data (DRB1*0701 (DR7)): 0.0170

CC[C@H](C)[C@H](NC(=O)[C@H](CCC(=O)O)NC(=O)[C@@H](N)CCCCN)C(=O)N[C@@H](CC(C)C)C(=O)N[C@@H](CC(=O)O)C(=O)N[C@@H](CCC(=O)O)C(=O)N[C@@H](C)C(=O)N[C@@H](Cc1ccc(O)cc1)C(=O)N[C@H](C(=O)N[C@@H](CCSC)C(=O)N[C@@H](C)C(=O)NCC(=O)N[C@H](C(=O)NCC(=O)N[C@@H](CO)C(=O)O)C(C)C)C(C)C
DR1 binding data (DRB1*0101 (DR1)): 0.0036 | DR147 Cross-binding [1]: 0 | DR4w4 binding data (DRB1*0401 (DR4w4)): 0.0073 | DR7 binding data (DRB1*0701 (DR7)): −0.0011

CC[C@H](C)[C@H](NC(=O)[C@@H]1CCCN1C(=O)[C@H](CCSC)NC(=O)[C@H](Cc1ccc(O)cc1)NC(=O)[C@H](CO)NC(=O)[C@H](CC(C)C)NC(=O)[C@H](CC(=O)O)NC(=O)[C@@H]1CCCN1C(=O)[C@@H](N)CCCCN)C(=O)N[C@@H](Cc1c[nH]c2ccccc12)C(=O)N[C@@H](CCCCN)C(=O)N[C@@H](Cc1ccccc1)C(=O)N1CCC[C@H]1C(=O)N[C@@H](CC(=O)O)C(=O)N[C@@H](CCC(=O)O)C(=O)O
DR147 Cross-binding [1]: 1 | DR4w4 binding data (DRB1*0401 (DR4w4)): −0.0025

CC[C@H](C)[C@H](NC(=O)[C@H](CC(C)C)NC(=O)[C@H](C)NC(=O)[C@H](CC(C)C)NC(=O)CNC(=O)[C@H](CO)NC(=O)CNC(=O)[C@H](CC(C)C)NC(=O)[C@H](CCC(=O)O)NC(=O)[C@H](CCCNC(=N)N)NC(=O)[C@@H](N)CC(C)C)C(=O)N[C@@H](Cc1c[nH]cn1)C(=O)N[C@@H](Cc1c[nH]cn1)C(=O)N[C@@H](CC(N)=O)C(=O)N[C@H](C(=O)O)[C@@H](C)O
DR1 binding data (DRB1*0101 (DR1)): 0.0310 | DR147 Cross-binding [1]: 1 | DR4w4 binding data (DRB1*0401 (DR4w4)): −0.0025 | DR7 binding data (DRB1*0701 (DR7)): −0.0013

CC[C@H](C)[C@H](NC(=O)[C@@H]1CCCN1)C(=O)N[C@@H](CCCCN)C(=O)N[C@@H](Cc1c[nH]c2ccccc12)C(=O)N[C@@H](CCSC)C(=O)N[C@@H](C)C(=O)N[C@@H](CC(C)C)C(=O)N[C@@H](CCC(=O)O)C(=O)N[C@@H](CO)C(=O)N[C@H](C(=O)N[C@@H](CC(C)C)C(=O)N[C@@H](CCCNC(=N)N)C(=O)N[C@@H](CCCNC(=N)N)C(=O)N[C@@H](CCCNC(=N)N)C(=O)N[C@@H](Cc1ccccc1)C(=O)O)[C@@H](C)CC
DR1 binding data (DRB1*0101 (DR1)): 0.7900 | DR147 Cross-binding [1]: 1 | DR4w4 binding data (DRB1*0401 (DR4w4)): 0.0350 | DR7 binding data (DRB1*0701 (DR7)): 0.0078

CC(C)C[C@H](NC(=O)[C@H](C)NC(=O)[C@H](Cc1ccc(O)cc1)NC(=O)[C@H](CC(N)=O)NC(=O)[C@H](CC(=O)O)NC(=O)[C@H](CCC(=O)O)NC(=O)[C@H](Cc1ccccc1)NC(=O)[C@H](CC(C)C)NC(=O)[C@H](CCC(N)=O)NC(=O)[C@@H](N)[C@@H](C)O)C(=O)N[C@@H](C)C(=O)N[C@H](C(=O)N[C@@H](CC(C)C)C(=O)N[C@@H](CC(=O)O)C(=O)N[C@@H](CC(N)=O)C(=O)O)C(C)C
DR1 binding data (DRB1*0101 (DR1)): 0.0530 | DR147 Cross-binding [1]: 1 | DR4w4 binding data (DRB1*0401 (DR4w4)): −0.0025 | DR7 binding data (DRB1*0701 (DR7)): 0.0160

CC(C)C[C@H](NC(=O)[C@@H]1CCCN1C(=O)[C@@H](N)Cc1ccccc1)C(=O)N1CCC[C@H]1C(=O)N[C@@H](C)C(=O)N[C@@H](C)C(=O)N[C@@H](CCCNC(=N)N)C(=O)N1CCC[C@H]1C(=O)N[C@@H](C)C(=O)O [Her2/neu.1155.F1]
IC50 (HLA-B*0702; [3]): 34 nM | No. of B7 Alleles Crossbound [2]: 3

CC[C@H](C)[C@H](NC(=O)CNC(=O)[C@H](C)NC(=O)[C@@H]1CCCN1C(=O)[C@H](CCCNC(=N)N)NC(=O)[C@H](C)NC(=O)[C@H](C)NC(=O)[C@@H]1CCCN1C(=O)[C@@H](N)Cc1ccccc1)C(=O)O [Her2/neu.1157.F1I9]
IC50 (HLA-B*0702; [3]): 9.3 nM | No. of B7 Alleles Crossbound [2]: 3

CC[C@H](C)[C@H](NC(=O)[C@@H](NC(=O)[C@H](C)NC(=O)CNC(=O)[C@H](C)NC(=O)[C@@H]1CCCN1C(=O)[C@H](CCCNC(=N)N)NC(=O)[C@H](C)NC(=O)[C@H](C)NC(=O)[C@@H]1CCCN1C(=O)[C@@H](N)Cc1ccccc1)[C@@H](C)O)C(=O)O [Her2/neu.1157.F1I11]
IC50 (HLA-B*0702; [3]): 39 nM | No. of B7 Alleles Crossbound [2]: 4

CC(C)C[C@H](NC(=O)[C@@H](NC(=O)[C@H](C)NC(=O)CNC(=O)[C@H](C)NC(=O)[C@@H]1CCCN1C(=O)[C@H](CCCNC(=N)N)NC(=O)[C@H](C)NC(=O)[C@H](C)NC(=O)[C@@H]1CCCN1C(=O)[C@@H](N)Cc1ccccc1)[C@@H](C)O)C(=O)O [Her2/neu.1157.F1]
IC50 (HLA-B*0702; [3]): 3.9 nM | No. of B7 Alleles Crossbound [2]: 4

CPAEQRASPL [Her2/neu.642]
IC50 (HLA-B*0702; [3]): 37 nM | No. of B7 Alleles Crossbound [2]: 1

CPSGVKPDLSY [Her2/neu.600]
IC50 (HLA-B*0702; [3]): 183 nM | No. of B7 Alleles Crossbound [2]: 1

DMKLRLPASPETHLD
DR1 binding data (DRB1*0101 (DR1)): 0.0010 | DR147 Cross-binding [1]: 0 | DR4w4 binding data (DRB1*0401 (DR4w4)): −0.0025 | DR7 binding data (DRB1*0701 (DR7)): −0.0013

ETELVEPLTPSGAMP
DR1 binding data (DRB1*0101 (DR1)): 0.0060 | DR147 Cross-binding [1]: 1 | DR4w4 binding data (DRB1*0401 (DR4w4)): −0.0025 | DR7 binding data (DRB1*0701 (DR7)): −0.0013

FPAEQRASPI [Her2/neu.642.F1I10]
IC50 (HLA-B*0702; [3]): 3.1 nM | No. of B7 Alleles Crossbound [2]: 3

FPAEQRASPL [Her2/neu.642.F1]
IC50 (HLA-B*0702; [3]): 1.4 nM | No. of B7 Alleles Crossbound [2]: 3

FPGKNGVI [Her2/neu.1174.F1I8]
IC50 (HLA-B*0702; [3]): 458 nM | No. of B7 Alleles Crossbound [2]: 3

FPIKWMAL [Her2/neu.884.F1]
IC50 (HLA-B*0702): 0.6 nM | No. of B7 Alleles Crossbound [2]: 4

FPKANKEII [Her2/neu.760.F1I9]
IC50 (HLA-B*0702; [3]): 8.5 nM | No. of B7 Alleles Crossbound [2]: 3

FPLAPSEGI [Her2/neu.1073.F1I9]
IC50 (HLA-B*0702; [3]): 100 nM | No. of B7 Alleles Crossbound [2]: 4

FPLPAARPI [Her2/neu.1155.F1I9]
IC50 (HLA-B*0702; [3]): 6.5 nM | No. of B7 Alleles Crossbound [2]: 4

FPSETDGYI [Her2/neu.1120.F1I9]
IC50 (HLA-B*0702; [3]): 220 nM | No. of B7 Alleles Crossbound [2]: 4

FPSGAMPNQI [Her2/neu.701.F1]
IC50 (HLA-B*0702; [3]): 229 nM | No. of B7 Alleles Crossbound [2]: 3

FPSGVKPDI [Her2/neu.600.F1I9]
IC50 (HLA-B*0702; [3]): 6.3 nM | No. of B7 Alleles Crossbound [2]: 3

FPTHDPSPI [Her2/neu.1101.F1I9]
IC50 (HLA-B*0702; [3]): 108 nM | No. of B7 Alleles Crossbound [2]: 4

FPYDGIPA [Her2/neu.921.F1]
IC50 (HLA-B*0702): 423 nM | No. of B7 Alleles Crossbound [2]: 4

FPYDGIPI [Her2/neu.921.F1I8]
IC50 (HLA-B*0702; [3]): 177 nM | No. of B7 Alleles Crossbound [2]: 5

IKVLRENTSPKANKE
DR1 binding data (DRB1*0101 (DR1)): −0.0005 | DR147 Cross-binding [1]: 0 | DR4w4 binding data (DRB1*0401 (DR4w4)): −0.0032 | DR7 binding data (DRB1*0701 (DR7)): −0.0011

ITDFGLARLLDIDET
DR1 binding data (DRB1*0101 (DR1)): 0.0048 | DR147 Cross-binding [1]: 0 | DR4w4 binding data (DRB1*0401 (DR4w4)): −0.0032 | DR7 binding data (DRB1*0701 (DR7)): −0.0011

LTSHSAVVGILLVV
DR1 binding data (DRB1*0101 (DR1)): 0.1900 | DR4w4 binding data (DRB1*0401 (DR4w4)): −0.0025 | DR7 binding data (DRB1*0701 (DR7)): 0.0049

MPNQAQMRILI [Her2/neu.706.I11]
IC50 (HLA-B*0702; [3]): 344 nM | No. of B7 Alleles Crossbound [2]: 4

MPYGCLLDHVI [Her2/neu.801.I11]
IC50 (HLA-B*0702; [3]): 66 nM | No. of B7 Alleles Crossbound [2]: 5
